Patent publication US10934274B2, “Quinoline derivatives as TAM RTK inhibitors” (Qurient Co., Ltd., priority 2015, dated 2021)

Assays:
[1] = tested on: Axl phosphorylation in transiently transfected HEK293T cells; experiment: Cellular Axl phosphorylation assay; assay type: cell-based; conditions: Homo sapiens, HEK-293T; HEK293T cells transfected with Axl, 1 hour compound treatment, Phospho-Axl vs Total-Axl
How it was run: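 HEK293T cells transiently transfected with Axl (empty pcDNA_DEST_40 vector as minimum control) were treated with compound in DMSO for 1 h, then lysed. Total and phospho-Axl in lysates were measured by Mesoscale electrochemiluminescence immunoassay. IC50 was taken relative to the DMSO vehicle and empty-vector controls.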

[2] = target: T1, TYRO3 (Homo sapiens, UniProt Q06418); experiment: LanthaScreen Eu kinase binding assay, TYRO3; conditions: Tracer 236
T1 construct: purchased Life Technologies
T1 sequence (Q06418 41-890): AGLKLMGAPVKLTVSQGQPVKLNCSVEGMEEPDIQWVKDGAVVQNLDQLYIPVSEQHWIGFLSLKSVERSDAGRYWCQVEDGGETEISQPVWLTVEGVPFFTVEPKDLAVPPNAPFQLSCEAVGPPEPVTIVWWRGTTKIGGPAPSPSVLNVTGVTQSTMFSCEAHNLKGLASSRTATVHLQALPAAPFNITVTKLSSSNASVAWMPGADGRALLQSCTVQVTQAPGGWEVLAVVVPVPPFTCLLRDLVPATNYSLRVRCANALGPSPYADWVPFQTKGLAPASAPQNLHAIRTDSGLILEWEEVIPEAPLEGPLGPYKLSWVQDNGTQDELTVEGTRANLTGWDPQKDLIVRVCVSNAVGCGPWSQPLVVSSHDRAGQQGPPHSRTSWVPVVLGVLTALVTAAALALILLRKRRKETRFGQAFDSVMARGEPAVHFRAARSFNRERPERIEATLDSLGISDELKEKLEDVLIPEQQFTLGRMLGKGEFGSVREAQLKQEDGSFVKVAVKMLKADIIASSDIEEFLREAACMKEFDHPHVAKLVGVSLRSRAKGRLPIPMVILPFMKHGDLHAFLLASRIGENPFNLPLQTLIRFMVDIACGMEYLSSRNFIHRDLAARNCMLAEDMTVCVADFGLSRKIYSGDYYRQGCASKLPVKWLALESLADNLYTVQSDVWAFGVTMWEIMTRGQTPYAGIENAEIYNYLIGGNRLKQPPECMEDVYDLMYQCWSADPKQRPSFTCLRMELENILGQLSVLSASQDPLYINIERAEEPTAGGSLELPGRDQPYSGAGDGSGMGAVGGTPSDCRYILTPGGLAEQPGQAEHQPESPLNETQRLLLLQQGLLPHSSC

Compound	Kd [2] [µM]	IC50 [1] [µM]
CCOc1cn(-c2ccc(OC)cc2)nc1C(=O)Nc1ccc(Oc2ccnc3cc(OC)c(OC)cc23)cn1 [Compound 1]	0.1 to 1	< 0.1
CCOc1cn(-c2cccs2)nc1C(=O)Nc1ccc(Oc2ccnc3cc(OC)c(OC)cc23)cn1 [Compound 17]	< 0.1	< 0.1
CCOc1cn(-c2cccnc2Cl)nc1C(=O)Nc1ccc(Oc2ccnc3cc(OC)c(OC)cc23)cn1 [Compound 19]	< 0.1	< 0.1
CCOc1cnn(-c2cccs2)c1C(=O)Nc1ccc(Oc2ccnc3cc(OC)c(OC)cc23)cn1 [Compound 20]	0.1 to 1	< 0.1
CCOc1cn(-c2cccnc2C)nc1C(=O)Nc1ccc(Oc2ccnc3cc(OC)c(OC)cc23)cn1 [Compound 23]	< 0.1	< 0.1
CCOc1cn(CC)nc1C(=O)Nc1ccc(Oc2ccnc3cc(OC)c(OC)cc23)cn1 [Compound 27]	< 0.1	< 0.1
CCOc1cn(C)nc1C(=O)Nc1ccc(Oc2ccnc3cc(OC)c(OC)cc23)cn1 [Compound 29]	0.1 to 1	0.1 to 1
CCOc1cn(-c2ccc(N(C)C)cc2Cl)nc1C(=O)Nc1ccc(Oc2ccnc3cc(OC)c(OC)cc23)cn1 [Compound 31]	≥ 1	< 0.1
CCOc1cn(-c2cc[nH]c2)nc1C(=O)Nc1ccc(Oc2ccnc3cc(OC)c(OC)cc23)cn1 [Compound 32]	< 0.1	< 0.1
CCOc1cn(-c2ccoc2)nc1C(=O)Nc1ccc(Oc2ccnc3cc(OC)c(OC)cc23)cn1 [Compound 33]	< 0.1	< 0.1
CCOc1cn(-c2ccncc2C)nc1C(=O)Nc1ccc(Oc2ccnc3cc(OC)c(OC)cc23)cn1 [Compound 34]	< 0.1	< 0.1
CCOc1cn(CCOC(F)(F)F)nc1C(=O)Nc1ccc(Oc2ccnc3cc(OC)c(OC)cc23)cn1 [Compound 38]	0.1 to 1	< 0.1
CCOc1cn(-c2cnsc2)nc1C(=O)Nc1ccc(Oc2ccnc3cc(OC)c(OC)cc23)cn1 [Compound 39]	< 0.1	< 0.1
CCOc1cn(-c2ccnnc2)nc1C(=O)Nc1ccc(Oc2ccnc3cc(OC)c(OC)cc23)cn1 [Compound 40]	≥ 1	0.1 to 1
CCOc1oc(-c2cccnc2)nc1C(=O)Nc1ccc(Oc2ccnc3cc(OC)c(OC)cc23)cn1 [Compound 44]	≥ 1	< 0.1
CCOc1cn(CC2CCO2)nc1C(=O)Nc1ccc(Oc2ccnc3cc(OC)c(OC)cc23)cn1 (stereo not drawn) [Compound 48]	< 0.1	< 0.1
CCOc1cn(-c2cnc(C#N)nc2)nc1C(=O)Nc1ccc(Oc2ccnc3cc(OC)c(OC)cc23)cn1 [Compound 55]	< 0.1	< 0.1
CCOc1cn(-c2ccn(C)c2)nc1C(=O)Nc1ccc(Oc2ccnc3cc(OC)c(OC)cc23)cn1 [Compound 56]	< 0.1	< 0.1
CCOc1cn(-c2ccco2)nc1C(=O)Nc1ccc(Oc2ccnc3cc(OC)c(OC)cc23)cn1 [Compound 57]	< 0.1	< 0.1
CCOc1cn(-c2cnccc2CCN(C)C)nc1C(=O)Nc1ccc(Oc2ccnc3cc(OC)c(OC)cc23)cn1 [Compound 65]	< 0.1	< 0.1
CCOc1cn(CC(C)=O)nc1C(=O)Nc1ccc(Oc2ccnc3cc(OC)c(OC)cc23)cn1 [Compound 66]	0.1 to 1	< 0.1
CCOc1cn(-c2cnccc2CN(C)C)nc1C(=O)Nc1ccc(Oc2ccnc3cc(OC)c(OC)cc23)cn1 [Compound 73]	0.1 to 1	< 0.1
CCOc1cnn(C2CCCN(C)C2)c1C(=O)Nc1ccc(Oc2ccnc3cc(OC)c(OC)cc23)cc1F (stereo not drawn) [Compound 213]	≥ 1	0.1 to 1
CCOc1cn(C2CCCN(C(C)=O)C2)nc1C(=O)Nc1ccc(Oc2ccnc3cc(OC)c(OC)cc23)cc1F (stereo not drawn) [Compound 224]	0.1 to 1	< 0.1
CCOc1cn(Cc2cnccc2C)nc1C(=O)Nc1ccc(Oc2ccnc3cc(OC)c(OC)cc23)cc1F [Compound 226]	0.1 to 1	< 0.1
CCOc1cn(-c2cnccc2C(C)(O)CO)nc1C(=O)Nc1ccc(Oc2ccnc3cc(OC)c(OC)cc23)cc1F (stereo not drawn) [Compound 227]	< 0.1	< 0.1

Second part, led by results:

Kd [2] [µM]	Compound	IC50 [1] [µM]
< 0.1	CCOc1cn(-c2ccsc2)nc1C(=O)Nc1ccc(Oc2ccnc3cc(OC)c(OC)cc23)cn1 [Compound 18]	< 0.1
0.1 to 1	CCOc1cnn(-c2ccsc2)c1C(=O)Nc1ccc(Oc2ccnc3cc(OC)c(OC)cc23)cn1 [Compound 21]	< 0.1
0.1 to 1	CCOc1cn(-c2ccncc2Cl)nc1C(=O)Nc1ccc(Oc2ccnc3cc(OC)c(OC)cc23)cn1 [Compound 26]	< 0.1
≥ 1	CCOc1cnn(C)c1C(=O)Nc1ccc(Oc2ccnc3cc(OC)c(OC)cc23)cn1 [Compound 30]	< 0.1
< 0.1	CCOc1cn(-c2cnccn2)nc1C(=O)Nc1ccc(Oc2ccnc3cc(OC)c(OC)cc23)cn1 [Compound 36]	< 0.1
0.1 to 1	CCOc1cn(CCn2cccn2)nc1C(=O)Nc1ccc(Oc2ccnc3cc(OC)c(OC)cc23)cn1 [Compound 37]	0.1 to 1
≥ 1	CCOc1cn(-c2ccc(C#N)cn2)nc1C(=O)Nc1ccc(Oc2ccnc3cc(OC)c(OC)cc23)cn1 [Compound 43]	≥ 1
< 0.1	CCOc1sc(-c2cccnc2)nc1C(=O)Nc1ccc(Oc2ccnc3cc(OC)c(OC)cc23)cn1 [Compound 45]	< 0.1
0.1 to 1	CCOc1cnn(-c2ccco2)c1C(=O)Nc1ccc(Oc2ccnc3cc(OC)c(OC)cc23)cn1 [Compound 58]	< 0.1
< 0.1	CCOc1cn(-c2ncco2)nc1C(=O)Nc1ccc(Oc2ccnc3cc(OC)c(OC)cc23)cn1 [Compound 59]	< 0.1
< 0.1	CCOc1cn(-c2cnccc2CCCN(C)C)nc1C(=O)Nc1ccc(Oc2ccnc3cc(OC)c(OC)cc23)cn1 [Compound 61]	< 0.1
< 0.1	CCOc1cn(CCOC)nc1C(=O)Nc1ccc(Oc2ccnc3cc(OC)c(OC)cc23)cn1 [Compound 64]	< 0.1
≥ 1	CCOc1cn(C(C)(C)C(=O)NC)nc1C(=O)Nc1ccc(Oc2ccnc3cc(OC)c(OC)cc23)cn1 [Compound 68]	< 0.1
0.1 to 1	CCOc1cn(C2CCN(C)C2)nc1C(=O)Nc1ccc(Oc2ccnc3cc(OC)c(OC)cc23)cc1F (stereo not drawn) [Compound 212]	< 0.1
< 0.1	CCOc1cn(Cc2cnccn2)nc1C(=O)Nc1ccc(Oc2ccnc3cc(OC)c(OC)cc23)cc1F [Compound 215]	< 0.1
0.1 to 1	CCOc1cn(C2CCCN(C(N)=O)C2)nc1C(=O)Nc1ccc(Oc2ccnc3cc(OC)c(OC)cc23)cc1F (stereo not drawn) [Compound 225]	0.1 to 1
< 0.1	CCOc1cn(-c2nccnc2C(C)(O)CO)nc1C(=O)Nc1ccc(Oc2ccnc3cc(OC)c(OC)cc23)cc1F (stereo not drawn) [Compound 229]	< 0.1
≥ 1	CCOc1cn(-c2cnc(N)nc2)nc1C(=O)Nc1ccc(Oc2ccnc3cc(OC(C)C)c(OC)cc23)cc1F [Compound 230]	< 0.1
< 0.1	CCOc1cn(-c2cnccc2CO)nc1C(=O)Nc1ccc(Oc2ccnc3cc(OC(C)C)c(OC)cc23)cc1F [Compound 231]	< 0.1
